Source: patent publication US9724408B2, “Compositions and methods for activating stimulator of interferon gene-dependent signalling” (ADURO BIOTECH, INC., priority 2013, dated 2017)

Columns and labels:
[1] = molecular target: T1, hSTING (REF) (Homo sapiens, UniProt Q86WV6); assay: IFNβ-LUC reporter in HEK293T cells expressing hSTING (REF); type: cell-based; conditions: 10 μM, digitonin permeabilization, 6 hrs, FIG. 14
T1 construct: GFP; expressed in transfected cells; plasmid from the Vance Laboratory, UC Berkeley
T1 sequence (Q86WV6 whole entry): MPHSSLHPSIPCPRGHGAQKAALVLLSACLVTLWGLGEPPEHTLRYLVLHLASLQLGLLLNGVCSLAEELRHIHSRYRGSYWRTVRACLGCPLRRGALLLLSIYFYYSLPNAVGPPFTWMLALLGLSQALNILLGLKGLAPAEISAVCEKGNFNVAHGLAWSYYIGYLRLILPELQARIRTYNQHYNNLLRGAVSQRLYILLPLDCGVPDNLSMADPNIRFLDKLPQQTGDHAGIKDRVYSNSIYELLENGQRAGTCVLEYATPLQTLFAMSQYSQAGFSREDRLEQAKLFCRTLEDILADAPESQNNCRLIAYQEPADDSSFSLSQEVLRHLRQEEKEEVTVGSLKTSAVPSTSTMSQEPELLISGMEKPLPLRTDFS
Experimental: MSCV2.2 plasmids encoding hSTING(REF)-GFP, hSTING(WT)-GFP, hSTING(HAQ)-GFP, hSTING(Q)-GFP and mSTING(WT)-GFP were obtained from the Vance Laboratory at UC Berkeley. hSTING(AQ)-GFP was derived from hSTING(Q)-GFP using a QuickChange Site-Directed Mutagenesis kit (Stratagene). […] 1×10^4 HEK293T STING cells were seeded in 96-well plates and transiently transfected (using Lipofectamine 2000) with 50 ng of a human IFN-β reporter plasmid (pLuc-IFN-β) expressing the human IFN-β promoter upstream of a luciferase reporter and 10 ng of TK-renilla for normalization. 24 hours later, cells were stimulated with native and synthetic CDN derivative molecules using digitonin permeabalization to ensure uniform uptake. Each STING cell line was stimulated with 10 μM of cyclic [G(3′,5′)pA(3′,5′)p] (cGAMP), cyclic [G(2′,5′)pA(3′,5′)p] […] (RR-CDA), cyclic [A(2′,5′)pA(3′,5′)p] […] (RR-CDG), cyclic [G(2′,5′)pG(3′,5′)p] […] (ML RR-CDG) in 25 ul digitonin buffer (50 mM HEPES, 100 mM KCL, 3 mM MgCl2, 0.1 mM DTT, 85 mM Sucrose, 0.2% BSA, 1 mM ATP, 0.1 mM GTP, 10 ug/ml digitonin). After 20 min, the stimulation mixtures were removed and 200 ul of standard RPMI media was added. After stimulation for 6 hrs, cell lysates were prepared and reporter gene activity measured using the Dual Luciferase Assay System (Promega) on a Spectramax M3 luminometer.

[2] = test system: hSTING (Q); assay: IFNβ-LUC reporter in HEK293T cells expressing hSTING (Q); type: cell-based, human; conditions: 10 μM, digitonin permeabilization, 6 hrs, FIG. 14
Excerpt: To determine the responsiveness of the five known natural human STING variants (referred to as WT, REF, HAQ, AQ and Q) to the native and derivative molecules, a panel of human embryonic kidney (HEK) 293T cell lines that expressed the human STING alleles was generated. […] MSCV2.2 plasmids encoding hSTING(REF)-GFP, hSTING(WT)-GFP, hSTING(HAQ)-GFP, hSTING(Q)-GFP and mSTING(WT)-GFP were obtained from the Vance Laboratory at UC Berkeley. hSTING(AQ)-GFP was derived from hSTING(Q)-GFP using a QuickChange Site-Directed Mutagenesis kit (Stratagene). The sequence of the hSTING(REF) allele is also known as the Barber allele (Ishikawa, H., and Barber, G. N. (2008). Nature 455, 674-678), and has the NCBI Reference Sequence NP_938023.1. The amino acid difference between hSTING(REF) and the other WT, HAQ, AQ and Q human STING alleles are shown in FIG. 13, which is adapted from Yi et al., Plos One 8: e77846 (2013). Stable HEK 293T-derived cell lines expressing each of the individual human STING alleles were generated by FACS sorting of GFP positive cells using a Mo Flo cell sorter at the Cancer Research Laboratory Flow Cytometry Facility at UC Berkeley. 1×10^4 HEK293T STING cells were seeded in 96-well plates and transiently transfected (using Lipofectamine 2000) with 50 ng of a human IFN-β reporter plasmid (pLuc-IFN-β) expressing the human IFN-β promoter upstream of a luciferase reporter and 10 ng of TK-renilla for normalization. 24 hours later, cells were stimulated with native and synthetic CDN derivative molecules using digitonin permeabalization to ensure uniform uptake. Each STING cell line was stimulated with 10 μM of cyclic [G(3′,5′)pA(3′,5′)p] (cGAMP), cyclic [G(2′,5′)pA(3′,5′)p] (ML-cGAMP), Rp, Rp dithio cyclic [G(2′,5′)pA(3′,5′)p] […] (CDA), Rp, Rp dithio cyclic [A(3′,5′)pA(3′,5′)p] (RR-CDA), cyclic [A(2′,5′)pA(3′,5′)p] (ML-CDA), Rp, Rp dithio cyclic [A(2′,5′)pA(3′,5′)p] (ML RR-CDA), cyclic [G(3′,5′)pG(3′,5′)p] (CDG), Rp, Rp dithio cyclic [G(3′,5′)pG(3′,5′)p] (RR-CDG), cyclic [G(2′,5′)pG(3′,5′)p] (ML-CDG) or Rp, Rp dithio cyclic [G(2′,5′)pG(3′,5′)p] (ML RR-CDG) in 25 ul digitonin buffer (50 mM HEPES, 100 mM KCL, 3 mM MgCl2, 0.1 mM DTT, 85 mM Sucrose, 0.2% BSA, 1 mM ATP, 0.1 mM GTP, 10 ug/ml digitonin). After 20 min, the stimulation mixtures were removed and 200 ul of standard RPMI media was added. After stimulation for 6 hrs, cell lysates were prepared and reporter gene activity measured using the Dual Luciferase Assay System (Promega) on a Spectramax M3 luminometer.

[3] = test system: THP1-Blue™ ISG cells; assay: Type I interferon induction in THP1-Blue ISG reporter cells (QUANTI-Blue, A655); type: cell-based, human; conditions: 50 μM, mock treated, 16 hr incubation, FIG. 12
Experimental: To determine the relative level of type I interferon induced in human cells by each of the native and derivative molecules as a signature of adjuvant potency, 4×10^5 THP1-Blue™ ISG cells (a human monocyte cell line transfected with an IRF-inducible secreted embryonic alkaline phosphatase reporter gene (Invivogen) which express alkaline phosphatase under the control of a promoter comprised of five IFN-stimulated response elements) were incubated with 100 μM of cyclic [G(3′,5′)pG(3′,5′)p] (CDG), cyclic [G(2′,5′)pG(3′,5′)p] (mixed linkage, or ML-CDG), or HBSS for 30 minutes at 37° C. with 5% CO2. After 30 minutes, cells were washed and plated in 96-well dish in RPMI media containing 10% FBS, and incubated at 37° C. with 5% CO2. Cell culture supernatants from each sample were collected after overnight incubation, and 20 μL of the cell culture supernatants was added to 180 μL QUANTI-Blue reagent (Invivogen) and incubated for 45 minutes to evaluate type I interferon protein levels. Readings at Absorbance 655 nm were taken every 3 minutes using a Versa Max kinetic spectrophotometer (Molecular Diagnostics).
[…]. After 30 minutes, cells were washed and plated in 96-well dish in RPMI media containing 10% FBS, and incubated at 37° C. with 5% CO2. Cell culture supernatants from each sample were collected after overnight incubation, and 20 μL of the cell culture supernatants was added to 180 μL QUANTI-Blue reagent (Invivogen) and incubated for 45 minutes. Readings at Absorbance 655 nm were taken at 15 minutes using a SpectraMax spectrophotometer (Molecular Diagnostics).
The induction of type I interferon in human cells was measured to evaluate the potency of untreated and phosphodiesterase-treated oxo, Rp monothio and Rp, Rp dithio derivatives. […]. After 30 minutes, cells were washed and plated in a 96-well dish in RPMI media containing 10% FBS, and incubated at 37° C. with 5% CO2. Cell culture supernatants from each sample were collected after 16 hr incubation, and 20 μL of the cell culture supernatants was added to 180 μL QUANTI-Blue reagent (Invivogen) and incubated for 25 minutes to evaluate type I interferon protein levels. Readings at Absorbance 655 nm were measured with a Versa Max spectrophotometer (Molecular Diagnostics).

[4] = test system: snake venom phosphodiesterase (SVPD)
[5] = molecular target: T2, Nuclease P1 (NP1) (Penicillium citrinum, UniProt P24289); assay: Resistance to Nuclease P1, read out in THP1-Blue ISG cells; conditions: 2.5 mU NP1, 2 hr at 37° C., then 50 μM on THP1-Blue ISG cells, FIG. 12
T2 sequence (P24289 1-270): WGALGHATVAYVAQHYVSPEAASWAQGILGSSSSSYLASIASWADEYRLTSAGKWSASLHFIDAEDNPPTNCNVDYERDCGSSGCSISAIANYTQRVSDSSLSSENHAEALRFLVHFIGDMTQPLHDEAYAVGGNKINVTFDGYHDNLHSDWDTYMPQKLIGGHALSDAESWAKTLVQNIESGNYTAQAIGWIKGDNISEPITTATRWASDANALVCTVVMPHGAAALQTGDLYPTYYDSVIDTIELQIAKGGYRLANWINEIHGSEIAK

Compound | IFNβ reporter response of hSTING (REF) [1] | IFNβ reporter response of hSTING (Q) [2] | induction of type I interferon, untreated compounds [3] | type I interferon inducing activity after SVPD treatment [4] | type I interferon inducing activity after NP1 treatment [5]
cyclic [CDG, cyclic [G(3′,5′)pG(3′,5′)p], reference compound] | responded poorly | responded poorly |  |  | 
Nc1ncnc2c1ncn2[C@@H]1O[C@@H]2CO[P@@](O)(=S)O[C@H]3[C@@H](O)[C@H](n4cnc5c(N)ncnc54)O[C@@H]3CO[P@@](O)(=S)O[C@H]2[C@H]1O [RR-CDA, Rp, Rp dithio cyclic [A(3′,5′)pA(3′,5′)p], reference compound] |  |  | more potent inducers of type I interferon than the oxo | retain their potency | retain their potency
Nc1ncnc2c1ncn2C1OC2COP(=O)(O)OC3C(O)C(COP(=O)(S)OC2C1O)OC3n1cnc2c(N)ncnc21 (stereo not drawn) [ML R-CDA, monothio-cyclic-[A(2′,5′)pA(3′,5′)Rp]] |  |  |  | susceptible to SVPD treatment | retained activity after NP1 digestion
Nc1ncnc2c1ncn2C1OC2COP(=O)(O)OC3C(O)C(COP(=O)(O)OC2C1O)OC3n1cnc2c(N)ncnc21 (stereo not drawn) [ML-CDA, cyclic-[A(2′,5′)pA(3′,5′)p]] |  |  |  | lost activity | lost activity
Nc1nc2c(ncn2[C@@H]2O[C@@H]3COP(=O)(S)O[C@H]4[C@@H](O)[C@H](n5cnc6c(N)ncnc65)O[C@@H]4CO[P@@](=O)(S)O[C@@H]2[C@@H]3O)c(=O)[nH]1 (stereo partly drawn) [ML RR-cGAMP, dithio-[RP,RP]-cyclic-[G(2′,5′)pA(3′,5′)p]] |  | responsive to stimulation |  |  | 
Nc1ncnc2c1ncn2[C@@H]1O[C@@H]2COP(=O)(O)O[C@H]3[C@@H](O)[C@H](n4cnc5c(N)ncnc54)O[C@@H]3COP(=O)(O)O[C@H]2[C@H]1O [CDA, cyclic[A(3′,5′)pA(3′,5′)p], reference compound] | responded poorly | responded poorly |  | lost activity | lost activity
Nc1nc2c(ncn2[C@@H]2O[C@@H]3COP(=O)(O)O[C@H]4[C@@H](O)[C@H](n5cnc6c(N)ncnc65)O[C@@H]4COP(=O)(O)O[C@H]3[C@H]2O)c(=O)[nH]1 [cGAMP, cyclic [G(3′,5′)pA(3′,5′)p], reference compound] |  | responded poorly |  |  | 
